This note sets out measurements from patent US6087390A, “Derivatives of antifungal substance BE-31405 and process for producing the same” (Banyu Pharmaceutical Co., Ltd., priority 1997, dated 2000).

By MIC is commonly meant the least concentration at which growth counts as inhibited.

Values after ≈ are worked out from the molar mass of the structure shown.

One assay has as its system Candida albicans IFO1385. The assay can be described thus: Antifungal activity: MIC against Candida albicans IFO1385 on yeast nitrogen base agar. The assay is classed as cell-based. Conditions: 48 h; 2 days of incubation at 37° C., yeast nitrogen base agar with 1% glucose and 0.25% dipotassium hydrogen phosphate; single use; read-out: MIC.
Method: ^b MICs were determined against Candida albicans IFO1385 after 2 days
of incubation of the test strain at 37° C. on yeastnitrogen base
agar (containing 1% glucose and 0.25% dipotassium hydrogen phosphate,
For `CCCCC(=O)OC1C2OC3(OCC45CC6C(C)CCC6C6(C=O)CC4C=C(C(C)C)C65C(=O)O)OC2OC1C3O` (stereo not drawn) [Compound 10, 8a-[[[6-(n-valeryloxy)tetrahydro-7-hydroxy-2,5-methanofuro[2,3-d]-1,3-dioxol-2-yl]oxy]methyl]-4-formyl-4,4a,5,6,7,7a,8,8a-octahydro-7-methyl-3-(1-methylethyl)-1,4-methano-s-indacene-3a(1H)-carboxylic acid], the minimal inhibitory concentration (MIC) is 6.25 µg/mL (≈ 10.9 µM). Still for that read-out and setting: with `CCCCCCC(=O)OC1C2OC3(OCC45CC6C(C)CCC6C6(C=O)CC4C=C(C(C)C)C65C(=O)O)OC2OC1C3O` (stereo not drawn) [Compound 14, 8a-[[[6-(n-heptanoyloxy)tetrahydro-7-hydroxy-2,5-methanofuro[2,3-d]-1,3-dioxol-2-yl]oxy]methyl]-4-formyl-4,4a,5,6,7,7a,8,8a-octahydro-7-methyl-3-(1-methylethyl)-1,4-methano-s-indacene-3a(1H)-carboxylic acid] the figure was 1.56 µg/mL (≈ 2.59 µM). Still for that read-out and setting: with `CCCCOC1C2OC3(OCC45CC6C(C)CCC6C6(C=O)CC4C=C(C(C)C)C65C(=O)O)OC2OC1C3O` (stereo not drawn) [Compound 38, 8a-[[[6-(butoxy)tetrahydro-7-hydroxy-2,5-methanofuro[2,3-d]-1,3-dioxol-2-yl]oxy]methyl]-4-formyl-4,4a,5,6,7,7a,8,8a-octahydro-7-methyl-3-(1-methylethyl)-1,4-methano-s-indacene-3a(1H)-carboxylic acid] the figure was 3.13 µg/mL (≈ 5.73 µM); with `CCCCCC(=O)OC1C2OC3(OCC45CC6C(C)CCC6C6(C=O)CC4C=C(C(C)C)C65C(=O)O)OC2OC1C3O` (stereo not drawn) [Compound 13, 8a-[[[6-(n-hexanoyloxy)tetrahydro-7-hydroxy-2,5-methanofuro[2,3-d]-1,3-dioxol-2-yl]oxy]methyl]-4-formyl-4,4a,5,6,7,7a,8,8a-octahydro-7-methyl-3-(1-methylethyl)-1,4-methano-s-indacene-3a(1H)-carboxylic acid], 3.13 µg/mL (≈ 5.32 µM). On to `CC(C)CCOC1C2OC3(OCC45CC6C(C)CCC6C6(C=O)CC4C=C(C(C)C)C65C(=O)O)OC2OC1C3O` (stereo not drawn) [Compound 44, 8a-[[[6-(isopentyloxy)tetrahydro-7-hydroxy-2,5-methanofuro[2,3-d]-1,3-dioxol-2-yl]oxy]methyl]-4-formyl-4,4a,5,6,7,7a,8,8a-octahydro-7-methyl-3-(1-methylethyl)-1,4-methano-s-indacene-3a(1H)-carboxylic acid], for which the minimal inhibitory concentration (MIC) turned out to be 3.13 µg/mL (≈ 5.58 µM). `CCCCCOC1C2OC3(OCC45CC6C(C)CCC6C6(C=O)CC4C=C(C(C)C)C65C(=O)O)OC2OC1C3O` (stereo not drawn) [Compound 41, 8a-[[[6-(pentyloxy)tetrahydro-7-hydroxy-2,5-methanofuro[2,3-d]-1,3-dioxol-2-yl]oxy]methyl]-4-formyl-4,4a,5,6,7,7a,8,8a-octahydro-7-methyl-3-(1-methylethyl)-1,4-methano-s-indacene-3a(1H)-carboxylic acid]: the minimal inhibitory concentration (MIC) stood at 1.56 µg/mL (≈ 2.78 µM). On to `CCCCCCOC1C2OC3(OCC45CC6C(C)CCC6C6(C=O)CC4C=C(C(C)C)C65C(=O)O)OC2OC1C3O` (stereo not drawn) [Compound 47, 8a-[[[6-(hexyloxy)tetrahydro-7-hydroxy-2,5-methanofuro[2,3-d]-1,3-dioxol-2-yl]oxy]methyl]-4-formyl-4,4a,5,6,7,7a,8,8a-octahydro-7-methyl-3-(1-methylethyl)-1,4-methano-s-indacene-3a(1H)-carboxylic acid], for which the MIC was determined as 1.56 µg/mL (≈ 2.71 µM). Same read-out and setting: with `CCCCCCCCCCOC1C2OC3(OCC45CC6C(C)CCC6C6(C=O)CC4C=C(C(C)C)C65C(=O)O)OC2OC1C3O` (stereo not drawn) [Compound 50, 8a-[[[6-(decyloxy)tetrahydro-7-hydroxy-2,5-methanofuro[2,3-d]-1,3-dioxol-2-yl]oxy]methyl]-4-formyl-4,4a,5,6,7,7a,8,8a-octahydro-7-methyl-3-(1-methylethyl)-1,4-methano-s-indacene-3a(1H)-carboxylic acid] the figure was 3.13 µg/mL (≈ 4.96 µM).

The same assay, now with this note: 2 days of incubation at 37° C., yeast nitrogen base agar with 1% glucose and 0.25% dipotassium hydrogen phosphate; single use.
In turn, `CC(=O)O[C@@H]1[C@@H]2O[C@@]3(OC[C@@]45C[C@@H]6[C@H](C)CC[C@H]6[C@@]6(C=O)C[C@@H]4C=C(C(C)C)[C@@]56C(=O)O)O[C@@H]2O[C@@H]1[C@@H]3O` [BE-31405] displayed an MIC of 50 µg/mL (≈ 93.9 µM). The same measure, in the same setting: with `COC1C2OC3(OCC45CC6C(C)CCC6C6(C=O)CC4C=C(C(C)C)C65C(=O)O)OC2OC1C3O` (stereo not drawn) [SCH57404 (xylarin), reference compound] the figure was 100 µg/mL (≈ 198 µM).

A further assay concerns a certain kind of fungus.
Test: not given
Conditions: in vitro, acidic conditions.
As for `CC(=O)O[C@@H]1[C@@H]2O[C@@]3(OC[C@@]45C[C@@H]6[C@H](C)CC[C@H]6[C@@]6(C=O)C[C@@H]4C=C(C(C)C)[C@@]56C(=O)O)O[C@@H]2O[C@@H]1[C@@H]3O` [BE-31405], the “growth inhibitory (antifungal) activity under acidic conditions” value is recorded as “shows growth inhibitory activity against a certain kind of fungus in vitro especially under acidic conditions”.

The same assay, now with this note: neutral conditions.
With `CC(=O)O[C@@H]1[C@@H]2O[C@@]3(OC[C@@]45C[C@@H]6[C@H](C)CC[C@H]6[C@@]6(C=O)C[C@@H]4C=C(C(C)C)[C@@]56C(=O)O)O[C@@H]2O[C@@H]1[C@@H]3O` [BE-31405], the “antifungal activity under neutral conditions” value was “the activity remarkably lowers under neutral conditions”.
